Test results from the OPERA property sets (Mansouri et al. 2018).

Settings: for log10 BCF / log10 biotransformation half-life (days): fish

| SMILES | boiling point [°C] | melting point [°C] | further results |
| --- | --- | --- | --- |
| c1cc(-c2ncco2)cc(-c2ncco2)c1 | – | – | ready biodegradability: not readily biodegradable |
| CCCCCCCCOC(=O)CCCCCCCCC(=O)OCCCCCCCC | – | – | ready biodegradability: readily biodegradable |
| Ic1ccc(I)cc1 | 285 | 132 | – |
| CCCCCCCCCC(Br)C(=O)O (stereo not given) | – | 10 | – |
| O=[N+]([O-])c1cccc(S(=O)(=O)O)c1 | – | – | ready biodegradability: not readily biodegradable |
| CN1Cc2c(ccc3c2OCO3)[C@@H]2[C@H]1c1cc3c(cc1C[C@@H]2O)OCO3 | – | 136 | – |
| Clc1ccc(Cl)c(-c2c(Cl)cccc2Cl)c1Cl | – | – | log10 Koa: 8.53 |
| Clc1ccc2c(Cl)c(Cl)ccc2c1Cl | – | – | log10 Koa: 8.28 |
| NC(N)=Nc1nc(CSCCC(N)=NS(N)(=O)=O)cs1 | – | 164 | – |
| O=C(c1ccc(Br)cc1)c1ccc(Br)cc1 | 395 | 177 | – |
| Nc1cccc2ccccc12 | 301 | 49.2 | log10 Henry constant (atm·m³/mol): -6.95; log10 Koc (L/kg): 3.51; log10 vapour pressure (mmHg): -2.38; ready biodegradability: not readily biodegradable; log10 BCF: 1.4; log10 biotransformation half-life (days): -0.24 |
| CC(O)C#N (stereo not given) | 183 | -40 | log10 vapour pressure (mmHg): -0.925 |
| Cc1ccc(C)cc1 | 138 | 13.2 | log10 Henry constant (atm·m³/mol): -2.16; log10 Koa: 3.79; log10 Koc (L/kg): 2.41; log10 biodegradation half-life (days): 0.954; log10 vapour pressure (mmHg): 0.947; ready biodegradability: readily biodegradable; log10 BCF: 1.17 |
| NCCOP(=O)(O)O | – | 242 | – |
| O=C(O)c1ccc(Cl)cc1[N+](=O)[O-] | – | 144 | – |
| CC(=O)N(c1ccccc1)c1ccccc1 | – | 103 | – |
| ClC1=C(Cl)C2(Cl)[C@@H]3C[C@@H](Cl)[C@@H](Cl)[C@@H]3C1(Cl)C2(Cl)Cl (mixture of isomers) | – | – | log10 Koa: 8.89 |
| CCN(CC)CCCO | 190 | – | – |
| O=C1c2ccccc2C(=O)C1c1ccc(Br)cc1 | – | 138 | – |
| CC(C)(C)c1ccc(C(O)CCCN2CCC(C(O)(c3ccccc3)c3ccccc3)CC2)cc1 (stereo not given) | – | 147 | – |
| Cc1cccc2c(C)cccc12 | 265 | 82 | log10 Henry constant (atm·m³/mol): -3.46; log10 vapour pressure (mmHg): -2.3 |

| SMILES | boiling point [°C] | melting point [°C] | further results |
| --- | --- | --- | --- |
| Cc1ccc(Br)cc1N | – | 33 | – |
| O=C(CCc1ccc(O)cc1)c1c(O)cc(O)cc1O[C@@H]1O[C@H](CO)[C@@H](O)[C@H](O)[C@H]1O | – | 110 | – |
| CCC(=O)NC | 148 | -30.9 | log10 vapour pressure (mmHg): 0.0603 |
| Nn1cnnc1 | – | 82.5 | – |
| O=S(=O)(c1ccccc1)c1ccccc1 | 279 | 128 | – |
| Oc1cc(O)c(Cl)cc1Cl | 254 | 113 | – |
| CCCCc1cccc(O)c1 | 248 | – | – |
| OCC(F)(F)C(F)C(F)(F)F (stereo not given) | 117 | – | – |
| CC(C)CC#N | 128 | -101 | – |
| CC(C)C(=NO)C(C)C | 181 | 34 | – |
| O=CC=Cc1ccco1 | – | 54 | – |
| Cc1ccc(C(=O)O)c(O)c1 | – | 177 | – |
| CCC(C#N)c1ccccc1 (stereo not given) | 241 | – | – |
| C=CCc1ccccc1OCC(O)CNC(C)C (stereo not given) | – | 108 | – |
| COCCOc1ccccc1S(=O)(=O)N=C(O)N=c1nc(OC)[nH]c(OC)n1 | – | 130 | – |
| Clc1ccc(Oc2c(Cl)cc(Cl)cc2Cl)c(Cl)c1 | – | – | log10 biotransformation half-life (days): 1.69 |
| CCCCOC(=O)c1ccccc1O | 271 | -5.9 | – |
| c1ccc(C2=N[C@H](c3ccccc3)[C@@H](c3ccccc3)N2)cc1 | – | 134 | – |
| C=C(C)C(=O)Nc1ccc(Cl)c(Cl)c1 | – | 128 | – |
| CCc1ccccc1Br | 199 | -67.9 | – |
| OCC(Br)CBr (stereo not given) | – | – | log10 vapour pressure (mmHg): -1.04 |

| SMILES | boiling point [°C] | melting point [°C] | further results |
| --- | --- | --- | --- |
| COC(=O)C(C)O (stereo not given) | 145 | -66 | – |
| CC1(C)[C@H](C(=O)O[C@H](C#N)c2cccc(Oc3ccccc3)c2)[C@@H]1C=C(Br)Br | – | 100 | log10 vapour pressure (mmHg): -7.82; log10 BCF: 2.51; log10 biotransformation half-life (days): 0.51 |
| CC(C)CC(Cl)Cl | 130 | – | – |
| S=C1SCN(Cc2ccccc2)CN1Cc1ccccc1 | – | 102 | – |
| CCCN(CCC)CCC | 156 | -93.5 | log10 vapour pressure (mmHg): 0.179 |
| O=C(SSC(=O)c1ccccc1)c1ccccc1 | – | 134 | – |
| O=C(O)C(F)(F)C(F)(F)C(F)(F)C(F)(F)C(F)(F)C(F)F | 192 | 34 | – |
| Nc1ccc(C=CC(=O)O)cc1 | 285 | 122 | – |
| CC(C)(C(N)=O)n1nc2ccccc2n1 | – | 174 | – |
| O=C[C@H](O)C(O)[C@H](O)CO (stereo in doubt) | – | – | log10 vapour pressure (mmHg): -9.71 |
| CC(C)(C)C(O)C(Oc1ccc(-c2ccccc2)cc1)n1cncn1 (stereo not given) | – | 127 | – |
| CCCC[Si](Cl)(Cl)Cl | 148 | – | – |
| CCCN(CCC)C(=O)SCC | – | – | log10 Koc (L/kg): 2.38; log10 vapour pressure (mmHg): -1.62 |
| CCOc1ccc(C=O)cc1OCC | 279 | 22 | – |
| CC(C)(Oc1ccc(C2CC2(Cl)Cl)cc1)C(=O)O (stereo not given) | – | 115 | – |
| COP(=S)(OC)Oc1ccc(S(C)=O)c(C)c1 (stereo not given) | – | – | log10 BCF: 0.12; log10 biotransformation half-life (days): -0.38 |
| COc1cc2nc(N3CCN(C(=O)C4CCCO4)CC3)nc(N)c2cc1OC (stereo not given) | – | 273 | – |
| CC1CC(OC(=O)C(O)c2ccccc2)CC(C)(C)C1 (stereo not given) | – | 56 | – |
| O=C(Cl)C(Cl)(Cl)Cl | 118 | – | log10 Henry constant (atm·m³/mol): -3.29; log10 vapour pressure (mmHg): 1.33 |
| C=C(C)C(C)Cl (stereo not given) | 94 | – | – |
